These results are taken from the NIST ThermoML archive (doi:10.1016/j.fluid.2014.11.020).

± gives the expanded uncertainty stated by the source.

This data set can be described thus: activity coefficient (dimensionless); of the first substance listed, at infinite dilution; xn = mol fraction of the nth substance listed. The following applies: Liquid, Chromatography, x1 = 0.

On to `CCCCCCCCCCCC` [dodecane] + CCCOC[n+]1ccn(Cc2ccccc2)c1.F[B-](F)(F)F, for which the activity coefficient is, setting by setting: (323.15 K) 483 ± 33; (333.15 K) 421 ± 29; (343.15 K) 370 ± 25.
The corresponding values for `CCCCCCCCCCCC` [dodecane] + CN(C)c1cc[n+](COCCCOC[n+]2ccc(N(C)C)cc2)cc1.O=S(=O)([N-]S(=O)(=O)C(F)(F)F)C(F)(F)F.O=S(=O)([N-]S(=O)(=O)C(F)(F)F)C(F)(F)F are 156 ± 11, 137 ± 9.4 and 124 ± 8.5.
In the same order, the values of `CCCCCCCCCCCC` [dodecane] + Cn1cc[n+](COCCCOC[n+]2ccn(C)c2)c1.N#C[N-]C#N.N#C[N-]C#N are 1150 ± 79, 962 ± 66 and 932 ± 64.
The corresponding values for `CCCCCCCCCCCC` [dodecane] + N#C[N-]C#N.N#C[N-]C#N.c1ccc(Cn2cc[n+](COCCCOC[n+]3ccn(Cc4ccccc4)c3)c2)cc1 are 631 ± 43, 634 ± 44 and 600 ± 41.
For the compound `CCO` [ethanol] + CCCCCCCCn1cc[n+](COCCC)c1C.N#C[N-]C#N, the activity coefficient by setting is: (323.15 K) 0.39 ± 0.03; (333.15 K) 0.38 ± 0.03; (343.15 K) 0.38 ± 0.03.
Consider `CCO` [ethanol] + CCCCCCCCn1cc[n+](COCCC)c1C.O=S(=O)([N-]S(=O)(=O)C(F)(F)F)C(F)(F)F, for which the activity coefficient reads like this: (323.15 K) 1.12 ± 0.07; (333.15 K) 1.02 ± 0.06; (343.15 K) 0.94 ± 0.06.
In the same order, the values of `CCO` [ethanol] + CCCCCCCCn1cc[n+](COCCCOC[n+]2ccn(CCCCCCCC)c2C)c1C.N#C[N-]C#N.N#C[N-]C#N are 0.3 ± 0.03, 0.29 ± 0.03 and 0.29 ± 0.03.
With `CCO` [ethanol] + CCCCCCCCn1cc[n+](COCCCOC[n+]2ccn(CCCCCCCC)c2C)c1C.O=S(=O)([N-]S(=O)(=O)C(F)(F)F)C(F)(F)F.O=S(=O)([N-]S(=O)(=O)C(F)(F)F)C(F)(F)F, the activity coefficient by setting is: (323.15 K) 0.64 ± 0.04; (333.15 K) 0.58 ± 0.04; (343.15 K) 0.55 ± 0.04.
The corresponding values for `CCO` [ethanol] + CCCOC[n+]1ccc(N(C)C)cc1.O=S(=O)([N-]S(=O)(=O)C(F)(F)F)C(F)(F)F are 1.57 ± 0.1, 1.47 ± 0.1 and 1.4 ± 0.09.
Consider `CCO` [ethanol] + CCCOC[n+]1ccn(C)c1.F[B-](F)(F)F, for which the activity coefficient is 2.1 ± 0.14 (323.15 K), 1.9 ± 0.13 (333.15 K) and 1.75 ± 0.12 (343.15 K).
In the same order, the values of `CCO` [ethanol] + CCCOC[n+]1ccn(C)c1.N#C[N-]C#N are 0.74 ± 0.05, 0.73 ± 0.05 and 0.71 ± 0.05.
As for `CCO` [ethanol] + CCCOC[n+]1ccn(C)c1.O=S(=O)([N-]S(=O)(=O)C(F)(F)F)C(F)(F)F, the activity coefficient by setting is: (323.15 K) 1.51 ± 0.1; (333.15 K) 1.36 ± 0.09; (343.15 K) 1.26 ± 0.08.
In the same order, the values of `CCO` [ethanol] + CCCOC[n+]1ccn(Cc2ccccc2)c1.F[B-](F)(F)F are 1.65 ± 0.11, 1.49 ± 0.1 and 1.38 ± 0.09.
In the same order, the values of `CCO` [ethanol] + CCCOC[n+]1ccn(Cc2ccccc2)c1.N#C[N-]C#N are 0.73 ± 0.05, 0.6 ± 0.04 and 0.59 ± 0.04.
In the same order, the values of `CCO` [ethanol] + CN(C)c1cc[n+](COCCCOC[n+]2ccc(N(C)C)cc2)cc1.O=S(=O)([N-]S(=O)(=O)C(F)(F)F)C(F)(F)F.O=S(=O)([N-]S(=O)(=O)C(F)(F)F)C(F)(F)F are 1.21 ± 0.08, 1.11 ± 0.07 and 1.02 ± 0.06.
For the compound `CCO` [ethanol] + Cn1cc[n+](COCCCOC[n+]2ccn(C)c2)c1.N#C[N-]C#N.N#C[N-]C#N, the activity coefficient is, setting by setting: (323.15 K) 0.78 ± 0.05; (333.15 K) 0.76 ± 0.05; (343.15 K) 0.72 ± 0.05.
In the same order, the values of `CCO` [ethanol] + Cn1cc[n+](COCCCOC[n+]2ccn(C)c2)c1.O=S(=O)([N-]S(=O)(=O)C(F)(F)F)C(F)(F)F.O=S(=O)([N-]S(=O)(=O)C(F)(F)F)C(F)(F)F are 1.06 ± 0.07, 0.96 ± 0.06 and 0.89 ± 0.06.
For `CCO` [ethanol] + N#C[N-]C#N.N#C[N-]C#N.c1ccc(Cn2cc[n+](COCCCOC[n+]3ccn(Cc4ccccc4)c3)c2)cc1, the activity coefficient is, setting by setting: (323.15 K) 0.94 ± 0.06; (333.15 K) 0.89 ± 0.06; (343.15 K) 0.86 ± 0.06.
On to `CCc1ccccc1` [ethylbenzene] + CCCCCCCCn1cc[n+](COCCC)c1C.N#C[N-]C#N, for which the activity coefficient is 1.48 ± 0.1 (323.15 K), 1.5 ± 0.1 (333.15 K) and 1.54 ± 0.1 (343.15 K).
In the same order, the values of `CCc1ccccc1` [ethylbenzene] + CCCCCCCCn1cc[n+](COCCC)c1C.O=S(=O)([N-]S(=O)(=O)C(F)(F)F)C(F)(F)F are 1.01 ± 0.06, 1.03 ± 0.06 and 1.04 ± 0.07.
`CCc1ccccc1` [ethylbenzene] + CCCCCCCCn1cc[n+](COCCCOC[n+]2ccn(CCCCCCCC)c2C)c1C.N#C[N-]C#N.N#C[N-]C#N: the activity coefficient turned out to be 1.32 ± 0.09 (323.15 K), 1.34 ± 0.09 (333.15 K) and 1.36 ± 0.09 (343.15 K).
For the compound `CCc1ccccc1` [ethylbenzene] + CCCCCCCCn1cc[n+](COCCCOC[n+]2ccn(CCCCCCCC)c2C)c1C.O=S(=O)([N-]S(=O)(=O)C(F)(F)F)C(F)(F)F.O=S(=O)([N-]S(=O)(=O)C(F)(F)F)C(F)(F)F, the activity coefficient runs as follows: (323.15 K) 0.75 ± 0.05; (333.15 K) 0.73 ± 0.05; (343.15 K) 0.74 ± 0.05.
The corresponding values for `CCc1ccccc1` [ethylbenzene] + CCCOC[n+]1ccc(N(C)C)cc1.O=S(=O)([N-]S(=O)(=O)C(F)(F)F)C(F)(F)F are 1.45 ± 0.1, 1.53 ± 0.1 and 1.53 ± 0.1.
In the case of `CCc1ccccc1` [ethylbenzene] + CCCOC[n+]1ccn(C)c1.F[B-](F)(F)F, the activity coefficient is, setting by setting: (323.15 K) 11 ± 0.75; (333.15 K) 10.8 ± 0.74; (343.15 K) 10.7 ± 0.73.
As for `CCc1ccccc1` [ethylbenzene] + CCCOC[n+]1ccn(C)c1.N#C[N-]C#N, the activity coefficient by setting is: (323.15 K) 6 ± 0.41; (333.15 K) 6.06 ± 0.41; (343.15 K) 6.12 ± 0.42.
The corresponding values for `CCc1ccccc1` [ethylbenzene] + CCCOC[n+]1ccn(C)c1.O=S(=O)([N-]S(=O)(=O)C(F)(F)F)C(F)(F)F are 2.55 ± 0.17, 2.51 ± 0.17 and 2.51 ± 0.17.
In the same order, the values of `CCc1ccccc1` [ethylbenzene] + CCCOC[n+]1ccn(Cc2ccccc2)c1.F[B-](F)(F)F are 4.89 ± 0.33, 4.71 ± 0.32 and 4.73 ± 0.32.
As for `CCc1ccccc1` [ethylbenzene] + CCCOC[n+]1ccn(Cc2ccccc2)c1.N#C[N-]C#N, the activity coefficient amounted to 3.41 ± 0.23 (323.15 K), 3.36 ± 0.23 (333.15 K) and 3.32 ± 0.23 (343.15 K).
The corresponding values for `CCc1ccccc1` [ethylbenzene] + CCCOC[n+]1ccn(Cc2ccccc2)c1.O=S(=O)([N-]S(=O)(=O)C(F)(F)F)C(F)(F)F are 1.5 ± 0.1, 1.33 ± 0.09 and 1.32 ± 0.09.
On to `CCc1ccccc1` [ethylbenzene] + CN(C)c1cc[n+](COCCCOC[n+]2ccc(N(C)C)cc2)cc1.O=S(=O)([N-]S(=O)(=O)C(F)(F)F)C(F)(F)F.O=S(=O)([N-]S(=O)(=O)C(F)(F)F)C(F)(F)F, for which the activity coefficient reads like this: (323.15 K) 1.46 ± 0.1; (333.15 K) 1.49 ± 0.1; (343.15 K) 1.5 ± 0.1.
In the same order, the values of `CCc1ccccc1` [ethylbenzene] + Cn1cc[n+](COCCCOC[n+]2ccn(C)c2)c1.N#C[N-]C#N.N#C[N-]C#N are 11.2 ± 0.77, 10.9 ± 0.75 and 10.7 ± 0.73.
The corresponding values for `CCc1ccccc1` [ethylbenzene] + Cn1cc[n+](COCCCOC[n+]2ccn(C)c2)c1.O=S(=O)([N-]S(=O)(=O)C(F)(F)F)C(F)(F)F.O=S(=O)([N-]S(=O)(=O)C(F)(F)F)C(F)(F)F are 2.41 ± 0.16, 2.44 ± 0.17 and 2.38 ± 0.16.
The corresponding values for `CCc1ccccc1` [ethylbenzene] + N#C[N-]C#N.N#C[N-]C#N.c1ccc(Cn2cc[n+](COCCCOC[n+]3ccn(Cc4ccccc4)c3)c2)cc1 are 8.33 ± 0.57, 8.08 ± 0.55 and 7.78 ± 0.53.
Turning to `CCCCCCC` [heptane] + CCCCCCCCn1cc[n+](COCCC)c1C.N#C[N-]C#N, the activity coefficient was determined as 8.88 ± 0.61 (323.15 K), 8.18 ± 0.56 (333.15 K) and 7.95 ± 0.54 (343.15 K).
Regarding `CCCCCCC` [heptane] + CCCCCCCCn1cc[n+](COCCC)c1C.O=S(=O)([N-]S(=O)(=O)C(F)(F)F)C(F)(F)F, the activity coefficient was 4.64 ± 0.32 (323.15 K), 4.56 ± 0.31 (333.15 K) and 3.98 ± 0.27 (343.15 K).
The corresponding values for `CCCCCCC` [heptane] + CCCCCCCCn1cc[n+](COCCCOC[n+]2ccn(CCCCCCCC)c2C)c1C.N#C[N-]C#N.N#C[N-]C#N are 11.6 ± 0.79, 8.65 ± 0.59 and 8.8 ± 0.6.
`CCCCCCC` [heptane] + CCCCCCCCn1cc[n+](COCCCOC[n+]2ccn(CCCCCCCC)c2C)c1C.O=S(=O)([N-]S(=O)(=O)C(F)(F)F)C(F)(F)F.O=S(=O)([N-]S(=O)(=O)C(F)(F)F)C(F)(F)F: the activity coefficient by setting is: (323.15 K) 4.67 ± 0.32; (333.15 K) 4.51 ± 0.31; (343.15 K) 4.49 ± 0.31.
In the same order, the values of `CCCCCCC` [heptane] + CCCOC[n+]1ccc(N(C)C)cc1.O=S(=O)([N-]S(=O)(=O)C(F)(F)F)C(F)(F)F are 15.8 ± 1.1, 14.8 ± 1 and 13.9 ± 0.95.
